# Source: PubChem BioAssay (NCI)
#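 Exposure lasted 48 hours, with cells grown in 96-well plates and compounds tested at five concentrations. Definition used: TGI = concentration required for complete inhibition of growth.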
# How the values were obtained:
# Experiment in all cases: NCI tumour cell line growth inhibition, 48 h
# 786-0 renal = test system: 786-0 renal
# A498 renal = test system: A498 renal
# A549 NSCLC = test system: A549 NSCLC
# ACHN renal = test system: ACHN renal
# CAKI-1 renal = test system: CAKI-1 renal
# CCRF-CEM leukemia = test system: CCRF-CEM leukemia
# COLO 205 colon = test system: COLO 205 colon
# DLD-1 colon = test system: DLD-1 colon
# DMS 114 small cell lung = test system: DMS 114 small cell lung
# DMS 273 small cell lung = test system: DMS 273 small cell lung
# EKVX NSCLC = test system: EKVX NSCLC
# HCC-2998 colon = test system: HCC-2998 colon
# HCT-116 colon = test system: HCT-116 colon
# HCT-15 colon = test system: HCT-15 colon
# HL-60(TB) leukemia = test system: HL-60(TB) leukemia
# HOP-18 NSCLC = test system: HOP-18 NSCLC
# HOP-62 NSCLC = test system: HOP-62 NSCLC
# HOP-92 NSCLC = test system: HOP-92 NSCLC
# HT29 colon = test system: HT29 colon
# IGROV1 ovarian = test system: IGROV1 ovarian
# K-562 leukemia = test system: K-562 leukemia
# KM12 colon = test system: KM12 colon
# KM20L2 colon = test system: KM20L2 colon
# LOX IMVI melanoma = test system: LOX IMVI melanoma
# LXFL 529 NSCLC = test system: LXFL 529 NSCLC
# M14 melanoma = test system: M14 melanoma
# M19-MEL melanoma = test system: M19-MEL melanoma
# MALME-3M melanoma = test system: MALME-3M melanoma
# MOLT-4 leukemia = test system: MOLT-4 leukemia
# NCI-H226 lung = test system: NCI-H226 lung
# NCI-H23 lung = test system: NCI-H23 lung
# NCI-H460 lung = test system: NCI-H460 lung
# OVCAR-3 ovarian = test system: OVCAR-3 ovarian
# OVCAR-4 ovarian = test system: OVCAR-4 ovarian
# OVCAR-5 ovarian = test system: OVCAR-5 ovarian
# OVCAR-8 ovarian = test system: OVCAR-8 ovarian
# RPMI-8226 leukemia = test system: RPMI-8226 leukemia
# RXF 393 renal = test system: RXF 393 renal
# RXF-631 renal = test system: RXF-631 renal
# SF-295 CNS = test system: SF-295 CNS
# SF-539 CNS = test system: SF-539 CNS
# SK-MEL-2 melanoma = test system: SK-MEL-2 melanoma
# SK-MEL-28 melanoma = test system: SK-MEL-28 melanoma
# SK-MEL-5 melanoma = test system: SK-MEL-5 melanoma
# SK-OV-3 ovarian = test system: SK-OV-3 ovarian
# SN12C renal = test system: SN12C renal
# SNB-19 CNS = test system: SNB-19 CNS
# SNB-75 CNS = test system: SNB-75 CNS
# SNB-78 CNS = test system: SNB-78 CNS
# SR leukemia = test system: SR leukemia
# SW-620 colon = test system: SW-620 colon
# TK-10 renal = test system: TK-10 renal
# U251 CNS = test system: U251 CNS
# UACC-257 melanoma = test system: UACC-257 melanoma
# UACC-62 melanoma = test system: UACC-62 melanoma
# UO-31 renal = test system: UO-31 renal
# XF 498 CNS = test system: XF 498 CNS
# MCF7 breast = test system: MCF7 breast
# NCI-H522 lung = test system: NCI-H522 lung
# NCI/ADR-RES ovarian = test system: NCI/ADR-RES ovarian
# P388 leukemia = test system: P388 leukemia
# P388/ADR leukemia = test system: P388/ADR leukemia
# SF-268 CNS = test system: SF-268 CNS
# SN12K1 renal = test system: SN12K1 renal
smiles,measurement,setting,value
COc1c(I)c(OC)c2c(c1I)O[C@@H]1OCC[C@H]21,TGI,786-0 renal,> 100 µM
same,TGI,A498 renal,86 µM
same,TGI,A549 NSCLC,> 100 µM
same,TGI,ACHN renal,> 100 µM
same,TGI,CAKI-1 renal,46.1 µM
same,TGI,CCRF-CEM leukemia,> 100 µM
same,TGI,COLO 205 colon,57.8 µM
same,TGI,DLD-1 colon,> 100 µM
same,TGI,DMS 114 small cell lung,70.5 µM
same,TGI,DMS 273 small cell lung,56.5 µM
same,TGI,EKVX NSCLC,> 100 µM
same,TGI,HCC-2998 colon,78.6 µM
same,TGI,HCT-116 colon,> 100 µM
same,TGI,HCT-15 colon,> 100 µM
same,TGI,HL-60(TB) leukemia,55.6 µM
same,TGI,HOP-18 NSCLC,81 µM
same,TGI,HOP-62 NSCLC,> 100 µM
same,TGI,HOP-92 NSCLC,67.1 µM
same,TGI,HT29 colon,> 100 µM
same,TGI,IGROV1 ovarian,> 100 µM
same,TGI,K-562 leukemia,> 100 µM
same,TGI,KM12 colon,82.6 µM
same,TGI,KM20L2 colon,> 100 µM
same,TGI,LOX IMVI melanoma,> 100 µM
same,TGI,LXFL 529 NSCLC,63.7 µM
same,TGI,M14 melanoma,50.5 µM
same,TGI,M19-MEL melanoma,57.7 µM
same,TGI,MALME-3M melanoma,73.4 µM
same,TGI,MOLT-4 leukemia,54.4 µM
same,TGI,NCI-H226 lung,> 100 µM
same,TGI,NCI-H23 lung,> 100 µM
same,TGI,NCI-H460 lung,56.2 µM
same,TGI,OVCAR-3 ovarian,91.7 µM
same,TGI,OVCAR-4 ovarian,84.6 µM
same,TGI,OVCAR-5 ovarian,> 100 µM
same,TGI,OVCAR-8 ovarian,> 100 µM
same,TGI,RPMI-8226 leukemia,> 100 µM
same,TGI,RXF 393 renal,72.4 µM
same,TGI,RXF-631 renal,> 100 µM
same,TGI,SF-295 CNS,> 100 µM
same,TGI,SF-539 CNS,> 100 µM
same,TGI,SK-MEL-2 melanoma,41.2 µM
same,TGI,SK-MEL-28 melanoma,97 µM
same,TGI,SK-MEL-5 melanoma,27.2 µM
same,TGI,SK-OV-3 ovarian,> 100 µM
same,TGI,SN12C renal,> 100 µM
same,TGI,SNB-19 CNS,> 100 µM
same,TGI,SNB-75 CNS,82.9 µM
same,TGI,SNB-78 CNS,> 100 µM
same,TGI,SR leukemia,45.2 µM
same,TGI,SW-620 colon,> 100 µM
same,TGI,TK-10 renal,> 100 µM
same,TGI,U251 CNS,> 100 µM
same,TGI,UACC-257 melanoma,67.1 µM
same,TGI,UACC-62 melanoma,> 100 µM
same,TGI,UO-31 renal,66.3 µM
same,TGI,XF 498 CNS,66.4 µM
CN(C)CCOc1cc2c(c3ccccc13)-c1ccccc1C2O (centres undefined),TGI,A498 renal,29.8 µM
same,TGI,A549 NSCLC,29.3 µM
same,TGI,CAKI-1 renal,26.7 µM
same,TGI,CCRF-CEM leukemia,33.1 µM
same,TGI,COLO 205 colon,27.4 µM
same,TGI,DLD-1 colon,30.2 µM
same,TGI,DMS 114 small cell lung,26.2 µM
same,TGI,DMS 273 small cell lung,29 µM
same,TGI,EKVX NSCLC,28.2 µM
same,TGI,HCC-2998 colon,28.2 µM
same,TGI,HCT-116 colon,26.9 µM
same,TGI,HCT-15 colon,25.5 µM
same,TGI,HL-60(TB) leukemia,26.6 µM
same,TGI,HOP-18 NSCLC,29.5 µM
same,TGI,HOP-62 NSCLC,29 µM
same,TGI,HOP-92 NSCLC,19.5 µM
same,TGI,HT29 colon,27.8 µM
same,TGI,IGROV1 ovarian,32.4 µM
same,TGI,K-562 leukemia,38 µM
same,TGI,KM12 colon,29.5 µM
same,TGI,KM20L2 colon,29.9 µM
same,TGI,LOX IMVI melanoma,23.9 µM
same,TGI,M19-MEL melanoma,30.9 µM
same,TGI,MALME-3M melanoma,34.8 µM
same,TGI,MCF7 breast,28.3 µM
same,TGI,MOLT-4 leukemia,14.5 µM
same,TGI,NCI-H226 lung,29.1 µM
same,TGI,NCI-H23 lung,32.2 µM
same,TGI,NCI-H460 lung,22 µM
same,TGI,NCI-H522 lung,30.7 µM
same,TGI,NCI/ADR-RES ovarian,19.5 µM
same,TGI,OVCAR-3 ovarian,30.1 µM
same,TGI,OVCAR-4 ovarian,32.9 µM
same,TGI,OVCAR-5 ovarian,17.6 µM
same,TGI,OVCAR-8 ovarian,24.7 µM
same,TGI,P388 leukemia,> 100 µM
same,TGI,P388/ADR leukemia,33.3 µM
same,TGI,RPMI-8226 leukemia,31.2 µM
same,TGI,RXF 393 renal,10.1 µM
same,TGI,SF-268 CNS,28.3 µM
same,TGI,SF-295 CNS,48.7 µM
same,TGI,SF-539 CNS,27.5 µM
same,TGI,SK-MEL-2 melanoma,31.4 µM
same,TGI,SK-MEL-28 melanoma,30.2 µM
same,TGI,SK-MEL-5 melanoma,29.1 µM
same,TGI,SK-OV-3 ovarian,30.1 µM
same,TGI,SN12C renal,26.9 µM
same,TGI,SN12K1 renal,19.5 µM
same,TGI,SNB-19 CNS,20.2 µM
same,TGI,SNB-75 CNS,24.7 µM
same,TGI,SNB-78 CNS,31.6 µM
same,TGI,SW-620 colon,24.8 µM
same,TGI,U251 CNS,28.9 µM
same,TGI,UACC-257 melanoma,29.4 µM
same,TGI,UACC-62 melanoma,31.5 µM
same,TGI,UO-31 renal,25.2 µM
same,TGI,XF 498 CNS,25.7 µM
CC(=O)c1ccccc1NC(=O)C(=O)C(C(=O)c1ccccc1-c1ccccc1)C1OC(=O)c2ccccc21 (centres undefined),TGI,786-0 renal,34.3 µM
same,TGI,A498 renal,38.2 µM
same,TGI,A549 NSCLC,80.4 µM
same,TGI,ACHN renal,51.2 µM
same,TGI,CAKI-1 renal,> 100 µM
same,TGI,CCRF-CEM leukemia,> 100 µM
same,TGI,COLO 205 colon,46.1 µM
same,TGI,DLD-1 colon,48 µM
same,TGI,DMS 273 small cell lung,> 100 µM
same,TGI,EKVX NSCLC,65 µM
same,TGI,HCC-2998 colon,30.9 µM
same,TGI,HCT-116 colon,32.5 µM
same,TGI,HCT-15 colon,34.9 µM
same,TGI,HL-60(TB) leukemia,81.2 µM
same,TGI,HOP-18 NSCLC,36.1 µM
same,TGI,HOP-62 NSCLC,44.9 µM
same,TGI,HT29 colon,56.1 µM
same,TGI,IGROV1 ovarian,54.3 µM
same,TGI,K-562 leukemia,> 100 µM
same,TGI,KM12 colon,34.3 µM
same,TGI,KM20L2 colon,53 µM
same,TGI,LOX IMVI melanoma,37.7 µM
same,TGI,LXFL 529 NSCLC,31.3 µM
same,TGI,M14 melanoma,35.4 µM
same,TGI,M19-MEL melanoma,48.2 µM
same,TGI,MALME-3M melanoma,34.3 µM
same,TGI,MOLT-4 leukemia,93 µM
same,TGI,NCI-H226 lung,36.2 µM
same,TGI,NCI-H23 lung,31 µM
same,TGI,NCI-H460 lung,35.3 µM
same,TGI,NCI-H522 lung,31 µM
same,TGI,OVCAR-3 ovarian,48.1 µM
same,TGI,OVCAR-4 ovarian,> 100 µM
same,TGI,OVCAR-5 ovarian,64.9 µM
same,TGI,OVCAR-8 ovarian,47.9 µM
same,TGI,RPMI-8226 leukemia,> 100 µM
same,TGI,RXF 393 renal,25 µM
same,TGI,RXF-631 renal,> 100 µM
same,TGI,SF-295 CNS,52.4 µM
same,TGI,SF-539 CNS,37.2 µM
same,TGI,SK-MEL-2 melanoma,40.5 µM
same,TGI,SK-MEL-5 melanoma,33.8 µM
same,TGI,SK-OV-3 ovarian,> 100 µM
same,TGI,SN12C renal,43.5 µM
same,TGI,SNB-19 CNS,58.9 µM
same,TGI,SNB-75 CNS,51.7 µM
same,TGI,SNB-78 CNS,> 100 µM
same,TGI,SR leukemia,88.9 µM
same,TGI,SW-620 colon,86.5 µM
same,TGI,TK-10 renal,32 µM
same,TGI,U251 CNS,30.3 µM
same,TGI,UACC-257 melanoma,32.3 µM
same,TGI,UACC-62 melanoma,38.8 µM
same,TGI,UO-31 renal,32.8 µM
same,TGI,XF 498 CNS,24.3 µM
